Measurements reported in article PMC7502707, “Characterization and validation of a preventative therapy for hypertrophic cardiomyopathy in a murine model of the disease” (Proceedings of the National Academy of Sciences of the …, 2020).

How the values were obtained:
[1] = test system: wt and cTnI-G203S cardiac myocytes; experiment: Mitochondrial membrane potential (JC-1) after in vitro peptide exposure; format: cell-based, mouse; details: 10 μM BayK(−), calcium-free HBS
Protocol: Fluorescence was measured on a Hamamatsu Orca ER digital camera attached to an inverted Nikon TE2000-U microscope. Fluorescent indicator 5,5′,6,6′-tetrachloro-1,1′,3,3′-tetraethylbenzimidazolylcarbocyanine iodide was used to measure Ψm in cardiac myocytes, as previously described (JC-1, Molecular Probes) ([61]). Autofluorescence was used to measure flavoprotein oxidation in cardiac myocytes based on previously described methods ([13], [29], [62]). Responses to drugs were reported as a percentage increase from the basal average. Detailed methods are provided in SI Appendix.
Supporting Materials and Methods
Isolation of ventricular myocytes
Myocytes were isolated from wt and cTnI-G203S mice. Animals were anesthetized with pentobarbitone sodium (240 mg/kg) via intraperitoneal injection prior to excision of the heart. Cells were isolated as previously described (1-3). Mouse hearts were excised, cannulated onto a Langendorff apparatus via the aorta, and perfused with Krebs-Henseleit Buffer (KHB) containing […]
O2/CO2 at 37°C) for 4 min at 37°C. Hearts were then perfused with KHB supplemented with 2.4 mg/ml collagenase B for 3 min, followed by a further 8 min perfusion in the presence of 40 μM calcium. Following perfusion, aorta and atria were removed then ventricles teased apart and triturated to dissociate myocytes into suspension. Myocyte suspension was spun at 500 RPM for 3 min, supernatant discarded, and myocytes resuspended in calcium free Hepes-Buffered Solution […]
Hepes and 2 glutamine (pH = 7.4 at 37°C) in the presence or absence of 3 mM EGTA (for 0 mM calcium experiments). For calcium containing experiments, calcium was titrated back to achieve a final extracellular concentration of 1.8 mM. […]
Axopatch 200B voltage-clamp amplifier (Molecular Devices) with a Digidata 1440A interface and pClamp10.5 software (Molecular Devices). A Ag/AgCl electrode was used to ground the bath. Once the whole-cell configuration was achieved, the holding potential was set at –80 mV. […]
For calcium transient studies, microelectrodes contained (in mM): KCl 20, NaCl 10, MgCl2 2, CaCl2 0.03, potassium L-glutamate 120, EGTA 0.1, HEPES 5 and MgATP 5 (pH adjusted to 7.2 at 37°C with NaOH) supplemented with 2 µM Fura-2 AM (Fura-2, Molecular Probes, Eugene, Oregon). […]
NaCl 140, KCl 5.4, CaCl2 1, MgCl2 0.5, HEPES 5.5 and glucose 11 (pH adjusted to 7.6 with NaOH), […]
Fluorescence was measured on a Hamamatsu Orca ER digital camera attached to an inverted Nikon TE2000-U microscope. […]
(§1) Additionally, individual 580 nm and 535 nm wavelength signals were assessed in each experiment to determine whether the fluorescent indicator was accurately measuring Ψm. […] Ratiometric JC-1 or flavoprotein fluorescent signals were quantified by manually tracing myocytes and subtracting an equivalent background region […]

BALB/c nude mice = details: mouse, in vivo
Protocol: Eight-week-old male BALB/c nude mice were used to assess in vivo cardiac uptake and bio-distribution of sulfo-Cyanine7-labeled AID(S)-TAT and AID-TAT (Cy7, W&J PharmaChem) using a CRi Maestro 2 multispectral imaging system (Cambridge Research and Instrumentation) based on previously described methods ([63]). All studies were performed in mice anesthetized with isoflurane (2 to 4%), followed by intraperitoneal injection of pentobarbitone sodium (240 mg/kg), as approved by the Animal Ethics Committee of The University of Western Australia in accordance with the 2013 Australian Code for the Care and Use of Animals for Scientific Purposes ([58]). Detailed methods are provided in SI Appendix.
50 ms, Molecular Probes, Eugene, Oregon) (5). Cells were incubated in calcium-free HBS (supplemented with 3 mM EGTA and 200 nM JC-1) for at least 3 h prior to measuring changes in Ψm. Sodium cyanide (NaCN, 40 mM, mitochondrial electron transport blocker) was added at the end of each experiment to collapse Ψm, confirming that the JC-1 signal was indicative of Ψm.
as §1

QQLEEDLKGYLDWITQAE [AID-TAT]
increase in Ψm (JC-1) in response to BayK(−) ([1]; cTnI-G203S myocytes, 1 μM peptide in vitro): attenuated the response
increase in Ψm (JC-1) in response to BayK(−) ([1]; cTnI-G203S myocytes, 10 μM peptide in vitro): significantly attenuated the response
increase in Ψm (JC-1) in response to BayK(−) ([1]; wt myocytes, 1 μM peptide in vitro): attenuated the response in cTnI-G203S but not wt myocytes
increase in Ψm (JC-1) in response to BayK(−) ([1]; wt myocytes, 10 μM peptide in vitro): significantly attenuated the response
Cy7 decay (clearance) in left or right kidney, or liver (BALB/c nude mice): no significant difference
